Columns and labels:
Type in all cases: cell-based
[1] = tested on: COX-1 mRNA expression; assay: COX-1 RT-PCR in serum-free MDA-MB-231 cells; settings: TPA alone versus control; FIG. 11
Method: (§1) MDA-MB-231 cells were cultured in supplemented medium, then the cells were incubated at 37° C., CO2 5%. MDA-MB-231 cells were cultured in 6-well plates. A day before treatment administration, medium was changed with serum-free medium for 24 hours. Treatment administration was done by administering various doses of Phaleria macrocarpa extract dissolved in organic solvent. RNA isolation was conducted using Trizol. The RNAs then were used in RT-PCR process using specific primer for each gene we used. RT-PCR reactions were performed in PCR machines with optimized conditions. RT-PCR products were analyzed using electrophoresis technique on agarose gel 2%, and quantified using Chemidoc.

[2] = tested on: VEGF-C mRNA expression; assay: VEGF-C RT-PCR in serum-free MDA-MB-231 cells; settings: TPA versus control, serum-free medium; FIG. 13
Method: as §1

[3] = tested on: cPLA2 mRNA expression; assay: cPLA2 RT-PCR in serum-free MDA-MB-231 cells; settings: TPA versus control, serum-free medium; FIG. 12
Method: as §1

CCCCCCCCCCCCCC(=O)O[C@@H]1[C@@H](C)[C@@]2(O)[C@@H](C=C(CO)C[C@]3(O)C(=O)C(C)=C[C@@H]23)[C@@H]2C(C)(C)[C@]12OC(C)=O [TPA]
mRNA expression of COX-1 [1]: did not show any significant differences compared to control | VEGF-C gene in mRNA level [2]: significant increase of VEGF-C gene | cPLA2 mRNA expression [3]: increase in cPLA2 mRNA expression significantly

Source: patent US9078917B2, “Extract of Phaleria macrocarpa as an antineoplastic, anti-inflammatory and antiangiogenic agent” (PT. Dexa Medica, priority 2008, dated 2015)
